Tests used:
[1] = system: chymotrypsin-like activity of the proteasome; assay: Proteasome activity assay, striatal synaptosomes; type: in vivo; settings: R6/2 mice, 12 weeks old, 0.05 mg/ml in drinking water
Procedure: The chymotrypsin-like activity of the proteasome was determined using a specific proteasome substrate [succinyl (suc)-Leu-Leu-Val-Tyr-7-amino-4-methyl coumarin (AMC)] (Sigma-Aldrich, St Louis, MO, USA) as described earlier. In brief, the synaptosome-enriched fraction (10 µg) were incubated with the substrate (40 µM) in 100 µl of proteasome assay buffer [0.05 M Tris-HCl (pH 8.0), 0.5 mM EDTA, 1 mM ATP, and 1 mM DTT] at 37°C for 60 min where the relationship between the incubation time and product formation remained linear. The fluorescence of the released AMC was detected using a Fluorescence Microplate Reader System (Device, Sunnyvale, CA, USA) at 380-nm excitation and 460-nm emission wavelengths.

[2] = molecular target: T1, N-Formyl Peptide Receptor-like, FPRL1 (Homo sapiens, UniProt P25090); assay: Radioligand binding panel (Table S1); settings: 10 μM T1-11, n 2
T1 construct: purchased MDS Pharma Services Taiwan

[3] = system: GABAA, Agonist Site; assay: Radioligand binding panel (Table S1); design: species or system rat; settings: 10 μM T1-11, n 2
[4] = molecular target: T2, Adrenergic α 1B (Rattus norvegicus, UniProt P15823); assay: Radioligand binding panel (Table S1); settings: 10 μM T1-11, n 2
T2 construct: purchased MDS Pharma Services Taiwan

[5] = molecular target: T3, GABAB1A (Homo sapiens, UniProt Q9UBS5); assay: Radioligand binding panel (Table S1); settings: 10 μM T1-11, n 2
T3 construct: purchased MDS Pharma Services Taiwan

[6] = system: Glutamate, AMPA; assay: Radioligand binding panel (Table S1); design: species or system rat; settings: 10 μM T1-11, n 2
[7] = molecular target: T4, Ryanodine RyR3 (Rattus norvegicus, UniProt A0ABK0LPH6); assay: Radioligand binding panel (Table S1); settings: 10 μM T1-11, n 2
T4 construct: purchased MDS Pharma Services Taiwan
T4 sequence (A0ABK0LPH6 1-4875): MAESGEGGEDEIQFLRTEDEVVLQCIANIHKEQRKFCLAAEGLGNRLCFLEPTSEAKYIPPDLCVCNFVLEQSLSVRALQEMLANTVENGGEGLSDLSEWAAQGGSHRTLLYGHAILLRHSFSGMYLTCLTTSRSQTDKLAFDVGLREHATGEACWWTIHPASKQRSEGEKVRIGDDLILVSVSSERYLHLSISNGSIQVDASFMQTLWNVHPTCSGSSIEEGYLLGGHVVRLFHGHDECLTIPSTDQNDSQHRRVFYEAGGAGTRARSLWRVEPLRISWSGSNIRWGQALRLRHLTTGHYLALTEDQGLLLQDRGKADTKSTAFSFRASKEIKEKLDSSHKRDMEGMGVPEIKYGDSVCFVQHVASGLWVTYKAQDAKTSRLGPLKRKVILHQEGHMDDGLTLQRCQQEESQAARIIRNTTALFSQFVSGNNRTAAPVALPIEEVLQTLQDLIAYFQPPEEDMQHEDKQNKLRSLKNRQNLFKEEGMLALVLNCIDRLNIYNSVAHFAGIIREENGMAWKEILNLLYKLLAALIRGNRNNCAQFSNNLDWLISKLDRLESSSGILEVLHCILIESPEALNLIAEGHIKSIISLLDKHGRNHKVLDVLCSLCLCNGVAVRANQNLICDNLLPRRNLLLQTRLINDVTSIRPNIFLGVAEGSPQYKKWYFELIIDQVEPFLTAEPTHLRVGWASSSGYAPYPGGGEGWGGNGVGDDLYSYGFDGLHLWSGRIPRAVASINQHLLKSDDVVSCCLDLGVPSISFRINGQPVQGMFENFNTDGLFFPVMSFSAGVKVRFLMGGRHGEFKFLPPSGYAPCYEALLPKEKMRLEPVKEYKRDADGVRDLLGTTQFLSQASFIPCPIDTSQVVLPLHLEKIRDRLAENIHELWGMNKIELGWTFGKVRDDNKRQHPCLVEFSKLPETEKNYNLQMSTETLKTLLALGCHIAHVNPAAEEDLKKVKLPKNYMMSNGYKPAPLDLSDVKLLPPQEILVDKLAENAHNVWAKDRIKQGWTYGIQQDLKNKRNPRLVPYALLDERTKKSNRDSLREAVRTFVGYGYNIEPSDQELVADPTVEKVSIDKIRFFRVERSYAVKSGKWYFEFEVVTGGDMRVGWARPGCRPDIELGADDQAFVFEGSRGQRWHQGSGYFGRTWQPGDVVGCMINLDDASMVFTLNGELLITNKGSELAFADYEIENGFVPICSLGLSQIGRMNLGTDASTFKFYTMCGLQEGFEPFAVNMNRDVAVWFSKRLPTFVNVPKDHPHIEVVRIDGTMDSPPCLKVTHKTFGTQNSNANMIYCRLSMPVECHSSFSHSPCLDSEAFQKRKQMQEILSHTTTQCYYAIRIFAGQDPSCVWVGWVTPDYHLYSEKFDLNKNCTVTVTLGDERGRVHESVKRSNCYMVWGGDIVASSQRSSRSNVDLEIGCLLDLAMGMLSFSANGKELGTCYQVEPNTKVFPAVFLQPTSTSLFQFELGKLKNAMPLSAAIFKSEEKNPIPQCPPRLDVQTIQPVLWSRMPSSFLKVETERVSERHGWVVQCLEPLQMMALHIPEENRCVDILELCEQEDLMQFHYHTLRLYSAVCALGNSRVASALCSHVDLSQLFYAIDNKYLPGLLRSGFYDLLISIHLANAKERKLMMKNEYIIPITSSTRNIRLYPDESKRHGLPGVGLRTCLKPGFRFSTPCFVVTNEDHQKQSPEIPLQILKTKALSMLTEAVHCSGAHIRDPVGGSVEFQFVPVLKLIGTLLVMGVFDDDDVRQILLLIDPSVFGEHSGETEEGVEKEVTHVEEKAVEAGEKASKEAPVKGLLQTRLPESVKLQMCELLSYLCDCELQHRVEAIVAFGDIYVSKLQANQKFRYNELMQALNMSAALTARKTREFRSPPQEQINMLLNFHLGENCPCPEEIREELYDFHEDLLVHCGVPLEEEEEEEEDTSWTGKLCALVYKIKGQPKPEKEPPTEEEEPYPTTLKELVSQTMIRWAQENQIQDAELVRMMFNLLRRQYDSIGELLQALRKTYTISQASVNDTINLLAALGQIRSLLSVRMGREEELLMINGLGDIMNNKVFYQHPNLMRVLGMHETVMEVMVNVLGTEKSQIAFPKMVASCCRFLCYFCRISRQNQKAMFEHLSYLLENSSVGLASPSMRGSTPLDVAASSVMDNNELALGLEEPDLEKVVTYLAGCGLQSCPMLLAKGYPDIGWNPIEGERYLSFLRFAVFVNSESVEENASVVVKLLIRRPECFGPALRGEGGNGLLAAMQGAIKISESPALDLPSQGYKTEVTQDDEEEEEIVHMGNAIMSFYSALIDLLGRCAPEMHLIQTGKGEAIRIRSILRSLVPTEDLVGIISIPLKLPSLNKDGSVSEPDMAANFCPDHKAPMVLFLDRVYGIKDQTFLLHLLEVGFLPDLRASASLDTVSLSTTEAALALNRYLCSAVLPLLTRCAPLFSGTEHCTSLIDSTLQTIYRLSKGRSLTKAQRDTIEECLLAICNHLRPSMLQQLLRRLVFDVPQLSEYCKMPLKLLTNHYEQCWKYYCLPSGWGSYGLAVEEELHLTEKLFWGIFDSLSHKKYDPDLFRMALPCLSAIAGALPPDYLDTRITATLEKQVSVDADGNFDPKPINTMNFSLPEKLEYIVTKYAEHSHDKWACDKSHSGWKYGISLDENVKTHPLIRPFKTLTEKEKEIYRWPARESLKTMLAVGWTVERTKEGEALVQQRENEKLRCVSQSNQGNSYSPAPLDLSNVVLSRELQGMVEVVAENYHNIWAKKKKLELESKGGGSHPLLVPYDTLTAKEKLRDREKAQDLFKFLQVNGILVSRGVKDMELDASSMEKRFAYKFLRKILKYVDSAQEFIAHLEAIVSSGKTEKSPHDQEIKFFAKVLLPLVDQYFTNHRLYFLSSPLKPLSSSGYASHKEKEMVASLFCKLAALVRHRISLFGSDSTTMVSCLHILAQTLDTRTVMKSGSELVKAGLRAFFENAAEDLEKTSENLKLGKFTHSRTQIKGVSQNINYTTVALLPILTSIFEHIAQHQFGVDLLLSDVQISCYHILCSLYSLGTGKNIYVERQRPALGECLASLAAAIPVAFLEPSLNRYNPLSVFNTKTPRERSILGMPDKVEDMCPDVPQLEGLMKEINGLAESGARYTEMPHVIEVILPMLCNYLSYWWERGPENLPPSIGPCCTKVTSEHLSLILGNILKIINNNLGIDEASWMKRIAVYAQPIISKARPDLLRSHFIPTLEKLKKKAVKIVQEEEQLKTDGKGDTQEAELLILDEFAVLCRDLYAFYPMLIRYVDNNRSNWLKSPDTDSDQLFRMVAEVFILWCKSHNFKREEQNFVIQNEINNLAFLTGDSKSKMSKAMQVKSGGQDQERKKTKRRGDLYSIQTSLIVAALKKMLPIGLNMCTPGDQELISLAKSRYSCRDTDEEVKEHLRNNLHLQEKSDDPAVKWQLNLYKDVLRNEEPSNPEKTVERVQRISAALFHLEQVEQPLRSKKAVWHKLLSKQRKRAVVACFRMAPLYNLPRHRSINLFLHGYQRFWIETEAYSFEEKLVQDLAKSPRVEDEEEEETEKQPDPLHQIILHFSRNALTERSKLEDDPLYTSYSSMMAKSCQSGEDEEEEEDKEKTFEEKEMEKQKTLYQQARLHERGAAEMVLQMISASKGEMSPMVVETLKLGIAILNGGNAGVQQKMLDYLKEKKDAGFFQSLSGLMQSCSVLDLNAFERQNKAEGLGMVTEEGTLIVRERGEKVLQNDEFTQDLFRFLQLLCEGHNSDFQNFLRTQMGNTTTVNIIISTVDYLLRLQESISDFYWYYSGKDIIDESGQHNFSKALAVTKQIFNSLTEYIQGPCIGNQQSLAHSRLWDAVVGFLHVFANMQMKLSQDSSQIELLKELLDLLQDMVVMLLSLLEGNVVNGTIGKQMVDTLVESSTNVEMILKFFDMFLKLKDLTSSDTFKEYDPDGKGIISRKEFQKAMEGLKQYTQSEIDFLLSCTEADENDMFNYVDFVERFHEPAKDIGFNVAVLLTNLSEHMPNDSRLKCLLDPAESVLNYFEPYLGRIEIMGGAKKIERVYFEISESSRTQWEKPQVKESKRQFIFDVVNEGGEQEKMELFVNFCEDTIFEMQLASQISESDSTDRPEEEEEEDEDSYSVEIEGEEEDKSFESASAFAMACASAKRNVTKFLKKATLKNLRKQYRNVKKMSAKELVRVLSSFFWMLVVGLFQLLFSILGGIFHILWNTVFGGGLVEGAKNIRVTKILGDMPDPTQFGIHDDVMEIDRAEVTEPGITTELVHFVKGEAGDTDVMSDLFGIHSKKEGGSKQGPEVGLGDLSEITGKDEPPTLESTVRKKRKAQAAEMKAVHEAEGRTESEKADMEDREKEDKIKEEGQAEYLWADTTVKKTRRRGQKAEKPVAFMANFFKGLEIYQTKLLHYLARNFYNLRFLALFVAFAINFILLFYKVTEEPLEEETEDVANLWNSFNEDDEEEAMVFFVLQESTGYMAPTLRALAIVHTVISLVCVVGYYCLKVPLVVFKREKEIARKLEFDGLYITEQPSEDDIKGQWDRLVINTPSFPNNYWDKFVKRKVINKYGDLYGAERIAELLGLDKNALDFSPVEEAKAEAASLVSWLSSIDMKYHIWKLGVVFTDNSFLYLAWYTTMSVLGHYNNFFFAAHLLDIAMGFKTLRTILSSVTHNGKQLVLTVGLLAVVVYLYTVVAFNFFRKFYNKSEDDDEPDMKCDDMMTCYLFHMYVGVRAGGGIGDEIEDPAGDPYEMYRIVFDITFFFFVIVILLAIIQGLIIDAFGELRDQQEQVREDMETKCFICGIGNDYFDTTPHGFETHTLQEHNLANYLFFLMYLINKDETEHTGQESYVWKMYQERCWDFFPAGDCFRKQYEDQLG

[8] = molecular target: T5, Tachykinin NK1 (Homo sapiens, UniProt P25103); assay: Radioligand binding panel (Table S1); settings: 10 μM T1-11, n 2
T5 construct: purchased MDS Pharma Services Taiwan

[9] = molecular target: T6, Interleukin IL-6 (Homo sapiens, UniProt P08887); assay: Radioligand binding panel (Table S1); settings: 10 μM T1-11, n 2
T6 construct: purchased MDS Pharma Services Taiwan

[10] = system: R6/2 mice; assay: Hemodynamic examination of R6/2 mice; type: in vivo; settings: subcutaneous Alzet minipump for 48 h, 125 µg/mouse/day
Procedure: Heart rates and blood pressure of conscious and anesthetized mice were measured using a blood pressure monitor (model MK-2000; Muromachi Kikai, Tokyo, Japan) between 10 AM to 6 PM. Values of 12–18 successful readings per mouse were used to determine the blood pressure.
(A) T1-11 (125 µg/mouse/day) or vehicle (CON) was administrated subcutaneously to the indicated mice of 7 weeks old using ALZET osmotic minipumps for 6 weeks. Rotarod performance was assessed. (B, C) T1-11 (125 µg/mouse/day) was administrated subcutaneously to the indicated mice of 9 weeks old using ALZET osmotic minipumps for 48 h. Heart rate (B) and blood pressure (C) were determined by a tail-cuff method. * p<0.05. *** p<0.005. (TIF) Click here for additional data file.

[11] = system: Adrenergic α 2, Non-Selective; assay: Radioligand binding panel (Table S1); design: species or system rat; settings: 10 μM T1-11, n 2
[12] = molecular target: T7, Histamine H1 (Homo sapiens, UniProt P35367); assay: Radioligand binding panel (Table S1); settings: 10 μM T1-11, n 2
T7 construct: purchased MDS Pharma Services Taiwan

[13] = system: Calcium Channel L-Type, Benzothiazepine; assay: Radioligand binding panel (Table S1); design: species or system rat; settings: 10 μM T1-11, n 2
[14] = system: Sigma, Non-Selective; assay: Radioligand binding panel (Table S1); design: species or system guinea pig; settings: 10 μM T1-11, n 2
[15] = system: Neurotensin, Non-Selective; assay: Radioligand binding panel (Table S1); design: species or system mouse; settings: 10 μM T1-11, n 2
[16] = system: Colchicine; assay: Radioligand binding panel (Table S1); design: species or system rat; settings: 10 μM T1-11, n 2
Procedure: Radoligand binding assays were performed by MDS Pharma Services Taiwan (Taipei, Taiwan) using standard binding protocols. For the binding assay of the A2AR [67], membrane proteins collected from HEK293 cells overexpressing the human A2AR were incubated in reaction buffer [50 mM Tris-HCl (pH 7.4), 10 mM MgCl2, 1 mM EDTA, and 2 U/mL adenosine deaminase] containing ^3H-CGS21680 (50 nM) for 90 min at 25°C. Nonspecific binding was assessed in the presence of 50 µM adenosine- 5′-N-ethylcarboxamide. […] Nonspecific binding was assessed in the presence of 1 µM IB-MECA (Tocris Bioscience, Ellisville, MS, USA).

[17] = system: Thyrotropin Releasing Hormone (TRH); assay: Radioligand binding panel (Table S1); design: species or system rat; settings: 10 μM T1-11, n 2
[18] = system: Vascular Endothelial Growth Factor (VEGF); assay: Radioligand binding panel (Table S1); design: species or system human; settings: 10 μM T1-11, n 2
[19] = system: Transporter, Glycin.e; assay: Radioligand binding panel (Table S1); design: species or system rat; settings: 10 μM T1-11, n 2
[20] = molecular target: T8, Anaphylatoxin C5a (Homo sapiens, UniProt P21730); assay: Radioligand binding panel (Table S1); settings: 10 μM T1-11, n 2
T8 construct: purchased MDS Pharma Services Taiwan

[21] = molecular target: T9, Adrenergic β 3 (Homo sapiens, UniProt P13945); assay: Radioligand binding panel (Table S1); settings: 10 μM T1-11, n 2
T9 construct: purchased MDS Pharma Services Taiwan

[22] = molecular target: T10, Phosphodiesterase PDE10A1 (Homo sapiens, UniProt Q9Y233); assay: Radioligand binding panel (Table S1); settings: 10 μM T1-11, n 2
T10 construct: purchased MDS Pharma Services Taiwan

[23] = system: Potassium Channel [SKCA]; assay: Radioligand binding panel (Table S1); design: species or system rat; settings: 10 μM T1-11, n 2

## OC[C@H]1O[C@@H](n2cnc3c(NCc4ccc(O)cc4)ncnc32)[C@H](O)[C@@H]1O [T1-11, N ^6-(4-hydroxybenzyl)adenine riboside]
[1]
  Chymotrypsin-like activity in striatal synaptosome fractions: significantly enhanced chymotrypsin-like activity in the HD striatum
[2]
  inhibition at 10 µM: 5%
[3]
  % Inhibition: 4%
[4]
  inhibition at 10 µM: 3%
[5]
  inhibition at 10 µM: -1%
[6]
  % Inhibition: -9%
[7]
  inhibition at 10 µM: -1%
[8]
  inhibition at 10 µM: 3%
[9]
  inhibition at 10 µM: -3%
[10]
  Blood pressure: did not change the blood pressure of R6/2 mice
  Heart rate: did not affect their heart rate and blood pressure
[11]
  % Inhibition: 2%
[12]
  inhibition at 10 µM: 1%
[13]
  % Inhibition: -8%
[14]
  % Inhibition: -3%
[15]
  % Inhibition: 15%
[16]
  % Inhibition: -2%
[17]
  % Inhibition: -4%
[18]
  % Inhibition: 16%
[19]
  % Inhibition: 1%
[20]
  inhibition at 10 µM: 2%
[21]
  inhibition at 10 µM: -1%
[22]
  inhibition at 10 µM: 1%
[23]
  % Inhibition: 1%
